The values that follow come from ChEMBL document CHEMBL3763124, “N-Benzylbenzamides: A Novel Merged Scaffold for Orally Available Dual Soluble Epoxide Hydrolase/Peroxisome Proliferator-Activated Receptor γ Modulators” (J Med Chem, 2016).

The subject of data set [1] is Mus musculus. The data set can be described thus: Tmax in RjOrl:Swiss (CD-1) mouse plasma assessed as 2-Ethyl-3-[4-(N-((2-trifluoromethyl)benzyl)benzamide)]-propionic Acid at 30 mg/kg, po administered as single dose. Format: ADME, organism-based. To be noted: in vivo.
The test system of data set [2] is Mus musculus. Description: Cmax in RjOrl:Swiss (CD-1) mouse plasma assessed as 2-Ethyl-3-[4-(N-((2-trifluoromethyl)benzyl)benzamide)]-propionic Acid at 30 mg/kg, po administered as single dose. To be noted: in vivo. In kind it is ADME, organism-based. The arrangement: dose 30 mg/kg, route oral.
In data set [3] the test system is Mus musculus. The data set can be described thus: AUC (0 to infinity) in RjOrl:Swiss (CD-1) mouse plasma assessed as 2-Ethyl-3-[4-(N-((2-trifluoromethyl)benzyl)benzamide)]-propionic Acid at 30 mg/kg, po administered as single dose. Format: ADME, organism-based. Details: dose 30 mg/kg, route oral, time infinity. To be noted: in vivo.
For data set [4], the target named is T1, Peroxisome proliferator-activated receptor alpha (Homo sapiens, UniProt Q07869).
T1 sequence (Q07869 whole entry): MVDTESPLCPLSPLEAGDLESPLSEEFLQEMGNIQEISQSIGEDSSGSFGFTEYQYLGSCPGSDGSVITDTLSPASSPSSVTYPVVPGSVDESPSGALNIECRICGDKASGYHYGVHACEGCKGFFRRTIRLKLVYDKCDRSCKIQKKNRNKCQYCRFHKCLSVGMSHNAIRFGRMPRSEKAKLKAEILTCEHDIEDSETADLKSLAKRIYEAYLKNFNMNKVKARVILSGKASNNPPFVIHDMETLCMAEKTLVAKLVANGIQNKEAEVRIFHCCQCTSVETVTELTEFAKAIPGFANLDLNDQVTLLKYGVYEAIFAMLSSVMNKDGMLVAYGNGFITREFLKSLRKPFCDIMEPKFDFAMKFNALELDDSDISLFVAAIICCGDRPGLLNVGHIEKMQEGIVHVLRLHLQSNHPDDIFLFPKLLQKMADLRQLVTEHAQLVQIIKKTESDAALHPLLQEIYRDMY
To be noted: cos-7.
Description: Transactivation of human PPARalpha expressed in African green monkey COS7 cells incubated overnight by dual-glo luciferase reporter gene assay

The target of data set [5] is T2, Peroxisome proliferator-activated receptor alpha (Homo sapiens) (UniProt Q07869).
T2 sequence (whole entry): T1 sequence (Q07869 whole entry)
Description: Transactivation of human PPARalpha expressed in African green monkey COS7 cells incubated overnight by dual-glo luciferase reporter assay relative to GW7647. In kind it is cell-based. As to conditions: COS-7.

Data set [6] is described as follows: Solubility of the compound in water by microplate reader analysis. Format: physicochemical.
Another data set has as its system Brain. Description: Drug uptake in RjOrl:Swiss (CD-1) mouse brain assessed as 2-Ethyl-3-[4-(N-((2-trifluoromethyl)benzyl)benzamide)]-propionic Acid at 30 mg/kg, po administered as single dose. Format: ADME, organism-based. To be noted: in vivo.
Data set [7] addresses T3, Peroxisome proliferator-activated receptor delta (Homo sapiens, UniProt Q03181).
T3 sequence (Q03181 whole entry): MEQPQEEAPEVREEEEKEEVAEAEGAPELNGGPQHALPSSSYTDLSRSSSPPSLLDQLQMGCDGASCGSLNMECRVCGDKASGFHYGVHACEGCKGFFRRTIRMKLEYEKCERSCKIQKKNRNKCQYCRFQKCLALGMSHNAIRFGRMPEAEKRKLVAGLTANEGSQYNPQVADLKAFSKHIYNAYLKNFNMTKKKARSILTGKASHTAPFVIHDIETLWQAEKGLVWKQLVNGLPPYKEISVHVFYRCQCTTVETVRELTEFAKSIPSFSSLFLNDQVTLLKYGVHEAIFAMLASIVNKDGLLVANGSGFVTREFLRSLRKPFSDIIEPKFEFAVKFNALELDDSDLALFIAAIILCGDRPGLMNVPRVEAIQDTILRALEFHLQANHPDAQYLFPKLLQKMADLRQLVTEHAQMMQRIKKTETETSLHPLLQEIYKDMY
Description: Transactivation of human PPARdelta expressed in African green monkey COS7 cells incubated overnight by dual-glo luciferase reporter gene assay. In kind it is cell-based. As to conditions: cos-7.

Data set [8] has as its system Mus musculus. The data set can be described thus: Apparent oral clearance in RjOrl:Swiss (CD-1) mouse plasma assessed as 2-Ethyl-3-[4-(N-((2-trifluoromethyl)benzyl)benzamide)]-propionic Acid at 30 mg/kg administered as single dose. In kind it is ADME, organism-based. As to conditions: in vivo.
Data set [9] has as its system Mus musculus. The data set can be described thus: Apparent volume of distribution during terminal phase in RjOrl:Swiss (CD-1) mouse plasma assessed as 2-Ethyl-3-[4-(N-((2-trifluoromethyl)benzyl)benzamide)]-propionic Acid at 30 mg/kg, po administered as single dose. As to conditions: in vivo. In kind it is ADME, organism-based.
The subject of data set [10] is Mus musculus. The data set can be described thus: Drug metabolism in RjOrl:Swiss (CD-1) mouse plasma assessed as 2-Ethyl-3-[4-(N-((2-trifluoromethyl)benzyl)benzamide)]-propionic Acid formation at 30 mg/kg, po administered as single dose. In kind it is ADME, organism-based. As to conditions: in vivo.
Data set [11] concerns the target T4, Peroxisome proliferator-activated receptor delta (Homo sapiens) (UniProt Q03181).
T4 sequence (whole entry): T3 sequence (Q03181 whole entry)
Description: Transactivation of human PPARdelta expressed in African green monkey COS7 cells at 10 uM incubated overnight by dual-glo luciferase reporter assay. In kind it is cell-based. As to conditions: COS-7.

Another data set deals with HepG2. Description: Cytotoxicity against human HepG2 cells assessed as cell viability up to 30 uM after 48 hrs by WST-1 assay. In kind it is cell-based. To be noted: hepg2, 48 h.
Data set [12] deals with Mus musculus. The data set can be described thus: In vivo transactivation of PPARgamma in C57BL/6JRj mouse assessed as increase in sEH expression in liver at 30 mg/kg/day, po administered with drinking water after 2 weeks by qPCR method. In kind it is functional, organism-based.
Data set [13] deals with Free fatty acid receptor 1 (Homo sapiens) (UniProt O14842). The data set can be described thus: Partial agonist activity at human free fatty acid receptor 1 expressed in HEK293 cells assessed as inositol phosphate 1 accumulation incubated for 30 mins. Format: functional, cell-based.
Free fatty acid receptor 1 (Homo sapiens), sequence (O14842 whole entry): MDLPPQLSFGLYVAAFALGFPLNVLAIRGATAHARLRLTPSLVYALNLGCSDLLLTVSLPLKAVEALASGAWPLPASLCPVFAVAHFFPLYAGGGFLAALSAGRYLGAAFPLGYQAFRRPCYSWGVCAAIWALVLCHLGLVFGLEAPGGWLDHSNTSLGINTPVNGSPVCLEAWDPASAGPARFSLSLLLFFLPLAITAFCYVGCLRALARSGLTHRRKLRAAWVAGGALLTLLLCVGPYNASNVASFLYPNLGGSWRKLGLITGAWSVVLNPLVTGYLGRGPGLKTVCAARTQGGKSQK
Data set [14] in a line: Cmax in RjOrl:Swiss (CD-1) mouse plasma at 30 mg/kg, po. In kind it is ADME, organism-based. The arrangement: dose 30 mg/kg, route oral.
Data set [15] can be described thus: Apparent volume of distribution during terminal phase in RjOrl:Swiss (CD-1) mouse plasma at 30 mg/kg, po. To be noted: read-out: Vz/F. In kind it is ADME, organism-based.
The target of data set [16] is Free fatty acid receptor 1 (Mus musculus) (UniProt Q76JU9). The data set can be described thus: Partial agonist activity at mouse free fatty acid receptor 1 expressed in HEK293 cells assessed as inositol phosphate 1 accumulation incubated for 30 mins. Format: functional, cell-based.
Free fatty acid receptor 1 (Mus musculus), sequence (Q76JU9 whole entry): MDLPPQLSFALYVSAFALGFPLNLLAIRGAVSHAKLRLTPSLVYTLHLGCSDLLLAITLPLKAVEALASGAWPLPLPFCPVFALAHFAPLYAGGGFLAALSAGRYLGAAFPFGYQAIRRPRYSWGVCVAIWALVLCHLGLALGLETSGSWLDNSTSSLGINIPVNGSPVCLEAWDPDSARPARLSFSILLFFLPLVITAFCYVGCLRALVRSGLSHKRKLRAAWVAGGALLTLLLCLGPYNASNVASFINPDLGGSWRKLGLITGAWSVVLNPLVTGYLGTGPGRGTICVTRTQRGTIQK
A short description of data set [17]: Drug level in supernatant of African green monkey COS7 cells treated with Ethyl 2-Ethyl 3-[4-(N-(4-methoxy(2-trifluoromethyl)benzyl)-benzamide)]propanoate at 10 uM after 12 hrs by HPLC analysis. Format: ADME, cell-based. As to conditions: chlorocebus aethiops, cos-7, 12 h.
The test system of data set [18] is Mus musculus. Description: Upregulation of LXRalpha regulated ApoE expression in C57BL/6JRj mouse liver at 30 mg/kg/day, po administered with drinking water measured after 2 weeks by qPCR method. Format: functional, organism-based.
A short description of data set [19]: Apparent oral clearance in RjOrl:Swiss (CD-1) mouse plasma at 30 mg/kg. Format: ADME, organism-based.
Data set [20] has as its system Mus musculus. The data set can be described thus: In vivo transactivation of PPARgamma in C57BL/6JRj mouse assessed as increase in LXRalpha expression in liver at 30 mg/kg/day, po administered with drinking water measured after 2 weeks by qPCR method. In kind it is functional, organism-based.
For data set [21], the system named is Mus musculus. The data set can be described thus: Upregulation of PPARalpha gene expression in C57BL/6JRj mouse liver at 30 mg/kg/day, po administered with drinking water after 2 weeks by qPCR method. In kind it is functional, organism-based.
In data set [22] the target is T2, Peroxisome proliferator-activated receptor alpha (Homo sapiens). Description: Transactivation of human PPARalpha expressed in African green monkey COS7 cells at 10 uM incubated overnight by dual-glo luciferase reporter assay. As to conditions: COS-7. In kind it is cell-based.
For data set [23], the system named is Mus musculus. Description: Upregulation of LXRalpha regulated ABCA1 expression in C57BL/6JRj mouse liver at 30 mg/kg/day, po administered with drinking water measured after 2 weeks by qPCR method. In kind it is functional, organism-based.
Data set [24] deals with Mus musculus. Description: Upregulation of PPARgamma gene expression in C57BL/6JRj mouse liver at 30 mg/kg/day, po administered with drinking water measured after 2 weeks by qPCR method. Format: functional, organism-based.
For data set [25], the system named is Mus musculus. Description: In vivo transactivation of PPARgamma in C57BL/6JRj mouse assessed as increase in CD36 expression in liver at 30 mg/kg/day, po administered with drinking water measured after 2 weeks by qPCR method. In kind it is functional, organism-based.
Data set [26] has as its system Mus musculus. The data set can be described thus: In vivo transactivation of PPARgamma in C57BL/6JRj mouse assessed as increase in PGC-1alpha expression in liver at 30 mg/kg/day, po administered with drinking water measured after 2 weeks by qPCR method. In kind it is functional, organism-based.
Data set [27] in a line: AUC (0 to infinity) in RjOrl:Swiss (CD-1) mouse plasma at 30 mg/kg, po. In kind it is ADME, organism-based. The arrangement: dose 30 mg/kg, time infinity, route oral.

≈ marks a conversion by molar mass, not a printed value. Calls of active or inactive are those of the source. The rule behind the calls is not given here.

On to `CCOC(=O)C(CC)Cc1ccc(C(=O)NCc2ccccc2C(F)(F)F)cc1` (stereo unspecified), for which the Tmax in the data set with Mus musculus [1] was found to be 30 min. Further, the peak concentration (Cmax) in the data set with Mus musculus [2] is 2000 nM. The AUC in the data set on Mus musculus [3] stood at 4026 ng·h/mL. The EC50 result in [4] and in data set [7] was “Not Active” each time. Also, the Emax entry in data set [5] and in data set [11] was “inactive” in each case. In data set [6], this compound came in with a solubility of 2.5 µM (≈ 1.02 µg/mL). For the same compound, the Drug uptake with Brain amounted to 30 ng/g. In addition, the apparent clearance (CL/F) in the data set on Mus musculus [8] came out at 125 mL/min/kg. For the same compound, the Vz/F in the data set with Mus musculus [9] was 54.3 L/kg. In addition, the Drug metabolism result in the data set on Mus musculus [10] is on record as “metabolite_detected”.

Take `CCC(Cc1ccc(C(=O)NCc2ccc(OC)cc2C(F)(F)F)cc1)C(=O)O` (stereo unspecified): the values for the Activity result (with HepG2; in [22]) were “Non-toxic” and 29%, respectively. Also, the outcome (in the data set with Mus musculus [12]; in [13]; in data set [16]; in the data set with Mus musculus [20]; with Mus musculus [21]; in the data set on Mus musculus [24]) was Active. The outcome in the data set with Mus musculus [25] and in the data set with Mus musculus [26] was Active. For the same compound, the concentration in data set [14] peaked (Cmax) at 29100 ng/mL. Besides, the Vd/F in data set [15] came to 2 L/kg. Further, the Drug metabolism entry in [17] is “metabolite_detected”. The outcome in the data set with Mus musculus [18] and with Mus musculus [23] was inactive. Moreover, the CL/F in [19] is 5 mL/min/kg. Also, in data set [6], the solubility is 375 µM (≈ 154 µg/mL). Further, the EC50 result in data set [7] was “Not Active”. For the same compound, in [27], the AUC(0-inf) was determined as 94400 ng·h/mL.
